From patent publication US11992500B2, “Use of methylation inhibitors for the treatment of autoimmune diseases” (Rush University Medical Center, priority 2018, dated 2024) come the findings set out here.

Entries after “also recorded” stand apart in the source; their conditions may differ.

For data set [1], the system named is A20 cells. The data set is described as follows: Western blot of subcellular fractions of AzaC treated A20 cells. Format: cell-based, mouse. How it is done: Western blot analyses: AzaC treated A20 cells (10 μM AzaC for 72 hours) washed with PBS, nuclear and cytoplasmic extracts were prepared from 8×10^6 cells using Nuclei EZ Prep kit (Sigma-Aldrich) according to the manufacturer's protocol. Protein extracts were separated on a 4-10% SDS-polyacrylamide gel (Bio-Rad Laboratories) and blotted onto Immuno-Blot membrane (Bio-Rad Laboratories). Western blots were serially probed with anti-AhR, anti-Lamin-B1 and glyceraldehyde-3-phosphate dehydrogenase (GAPDH) (Santa Cruz Biotechnologies) antibodies. ECL Western Blotting Substrate (ThermoScientific) was used for detection.
(In western blotting, separated proteins are transferred to a membrane and probed.)

Data set [2] deals with proteoglycan-induced arthritis (PGIA). The experiment in a line: Prophylactic AzaC treatment of mice with PGIA. Format: in vivo, BALB/c mice. The following applies: prophylactic AzaC i.p. every other day from 10 days before expected onset. How it is done:
(§1) Mice: Retired breeder female BALB/c mice were purchased from the National Cancer Institute (NCI) and were used for the generation of cartilage proteoglycan-induced arthritis (PGIA). Briefly, the mice were immunized with PG purified from knee joint cartilage osteoarthritis patients who had undergone joint replacement surgery. PG was injected intraperitoneally (IP) 3 times (at 3-week intervals, 100 μg PG core protein/injection) with 2 mg of dimethyl-dioctadecyl-ammonium bromide adjuvant into BALB/c mice. Mice with acute arthritis were sacrificed 9 days after the 3rd PG immunization. Animal experiments were approved by the Institutional Animal Care and Use Committee at Rush University Medical Center, Chicago, Ill. […] Additional characteristics of RA are also present in other rodent models, but the above listed phenotypes and genotypes are present together only in PGIA.
First, the prophylactic effect of AzaC on arthritis development in mice with PGIA was investigated. AzaC treatment was started 10 days before the expected PGIA onset (on day 40 of the immunization) and was administered intraperitoneally (i.p.) every other day. The control group received saline solution (FIG. 3(A)). […] Female BALB/c mice were immunized 3 times with PG. Limbs were inspected regularly after the third PG injection for signs of arthritis, and a visual arthritis score was assigned to all paws. […]

Data set [3] deals with ex vivo-cultured arthritic B cells. The data set is described as follows: Ahr expression (RT-qPCR) in ex vivo-cultured arthritic B cells. Format: cell-based, mouse. The following applies: 20 μM AzaC, FIG. 1(J). From the text: Primary mouse cells were collected from the spleens, on day 9 after the third PG injection. B cells were purified using antibody-coated magnetic beads (StemCell Technologies). RNA was isolated from purified mouse lymphocytes using a TRI reagent (Sigma-Aldrich) immediately after separation.
(In general: Quantitative PCR measures a nucleic acid by following its amplification.)

The test system of data set [4] is A20 cells. The data set is described as follows: Gene expression (qRT-PCR) in A20 cells cultured with epigenetic enzyme inhibitors. Format: cell-based, mouse. On the procedure: Cell cultures: A20 mouse B cell line were purchased from American Type Culture Collection (ATCC) and were maintained at 37° C. in a 5% CO2-humidified atmosphere on Dulbecco's modified Eagle's medium (DMEM) containing 10% fetal bovine serum (FBS) and […] each of penicillin and streptomycin. Human B cell line GM12878 were purchased from ATCC and cultured in RPMI 1640 media and maintained at 37° C. in a 5% CO2-humidified incubator as described above.
Azacitidine (AzaC) treatment of A20 cells: […] were seeded into 6-well plates containing 3 ml cell culture medium. Before AzaC treatment, cells were incubated for 16-18 hours at 37° C. in 5% CO2. Cells were treated with AzaC to a final concentration of 5, 10 and […], control cells were treated with 0.15% DMSO. Cells were incubated for 48, 72 and 96 hours under standard cell culture conditions. After 48 and 72 hours AzaC was replenished to keep the desired AzaC concentration. Harvested cells were washed with phosphate buffered saline (PBS) and viability and cell numbers were assessed on Vi-cell XR cell counter (Beckmann Counter).
RNA isolation, cDNA synthesis, and quantitative reverse transcription-polymerase chain reaction (qRT-PCR): Total RNA from cell culture was isolated using QIAmp RNA Blood Kit (Qiagen) or Direct-Zol™ RNA miniprep Kit (Zymo Research). Each RNA sample was digested with 4U of TurboDNase™ (Ambion) and purified with RNA clean and concentrator-5 (Zymo Research) and samples quantified using NanoDrop 1000 spectrophotometer. Primary mouse cells were collected from the spleens, on day 9 after the third PG injection. B cells were purified using antibody-coated magnetic beads (StemCell Technologies). RNA was isolated from purified mouse lymphocytes using a TRI reagent (Sigma-Aldrich) immediately after separation.
Human peripheral blood mononuclear cells (PBMCs) were separated on a Ficoll gradient from blood samples obtained from consenting, healthy individuals and from RA patients naive to treatment with disease-modifying antirheumatic drugs (DMARDs). The isolated mononuclear cells were stored in RNAlater (Life Technologies) until RNA preparation. Complementary DNA was reverse transcribed from 1 μg total RNA with iScript™ Reverse Transcription Supermix (Bio-Rad Laboratories). Quantitative RT-PCR (CFX Connect™, Bio-Rad Laboratories) was performed in triplicate using SsoAdvanced™ Universal SYBR Green Supermix (Bio-Rad Laboratories) in 10 μl. Quantitative RT-PCR was performed using CFX machine (Bio-Rad). Primers were designed using PrimerQuest software and were manufactured by Integrated DNA Technologies. The qRT-PCR primer sequences are available upon request from the corresponding author. The specificity of the qRT-PCR product was monitored by a post-PCR melting curve analysis. Samples were tested in duplicate, and the CFX manager software was used to calculate the normalized fold expression changes based on the ΔΔCt method. Measured Ct values were normalized to β-actin internal control values.

The test system of data set [5] is A20 cells. Described as above. Format: cell-based, mouse. The source holds these as a separate data set.
Data set [6] concerns proteoglycan-induced arthritis (PGIA). The data set is described as follows: Therapeutic AzaC treatment of established PGIA. Format: in vivo, BALB/c mice. As to conditions: AzaC i.p. every other day after first symptoms (score ≥2), 2 mg/kg. On the procedure: as §1
In the therapeutic AzaC treatment group, arthritic mice were i.p. injected with either AzaC or vehicle on every other day following the first symptoms of arthritis, when the visual arthritis score was at least ≥2 per animal (FIG. 3(B)).

For data set [7], the system named is B cells of mice with PGIA. The data set is described as follows: Molecular, cellular and histological analyses of AzaC-treated PGIA mice. Format: in vivo, BALB/c mice.
[8] abbreviates: AzaC 48 hours, plasmid not expressing Ahr-specific shRNA.
The mark [9] stands for this setting: 72 hours, AzaC 2, 5, 10 μM, SAHA 0.1, 0.5, 1.0 μM, GSK126 5, 10, 15 μM, FIG. 6.

For the compound `Nc1ncn([C@@H]2O[C@H](CO)[C@@H](O)[C@H]2O)c(=O)n1` [AzaC, 4-Amino-1-(β-D-ribofuranosyl)-1,3,5-triazin-2(1H)-one], in the data set on A20 cells [1] (10 μM AzaC for 72 hours, Western blot), the “Translocation of AhR into nuclei” value was “translocation of the translated product into A20 nuclei; also recorded: AhR translocated into the nucleus without adding specific agonist”. In the data set on A20 cells [1] (Western blot, FIG. 2(E)), the “Aicda protein level in cytoplasmic fraction” value was “downregulation could be also observed at protein level; also recorded: reduces Aicda level”. Also, the AhR protein level result in the data set with A20 cells [1] (Western blotting) is “elevated AhR protein level was not detected”. For the same compound, the “Development of PGIA (signs of disease)” value in data set [2] is listed as “No sign of the disease was observed; also recorded: prevents the development of arthritis; also recorded: prevents PGIA development”. Besides, the Ahr expression result in data set [3] is “restored”. Further, in the data set with A20 cells [4] (10 μM AzaC for 72 hours, FIG. 5(C)), the “Expression of tentative AhR target genes (cytokine genes)” value was “could significantly alter the expression of three tentative AhR target genes”. The “Aicda expression with Ahr-specific shRNA” value in the data set with A20 cells [4] (AzaC 48 hours plus Ahr-specific shRNA-expressing construct) was “reversed”. In addition, in the data set with A20 cells [4] (setting [8]), the “Ahr expression, control plasmid” value is “significantly increased” and the “Aicda expression, control plasmid” value was “downregulated”. Further, the AhR gene expression result in the data set with A20 cells [4] (AzaC in various concentrations (5, 10, 15 μM), followed for three days, FIG. 1(L)) is “could revive AhR expression after two days”. The Cyp1a1 gene expression entry with A20 cells [4] (AzaC treatment) was “elevated expression of Cyp1a1 gene”. Besides, the Arnt expression entry with A20 cells [4] (AzaC treatment, FIG. 1(M), FIG. 2(A)) was “increased; also recorded: reactivated; also recorded: just prolonged and high concentration AzaC treatment could have released it from the silent state”. Further, the RelB expression result with A20 cells [4] (AzaC treatment, FIG. 2(B)) is on record as “increased”. Also, in the data set on A20 cells [5] (10 μM AzaC, 24, 48 and 72 hours), the “Ahr expression, time course” value is recorded as “could be reactivated; also recorded: increased Ahr expression; also recorded: significantly increased; also recorded: releases Ahr from DNA methylation-mediated silencing”. Moreover, in the data set on A20 cells [5] (setting [9]), the AhR gene expression entry is recorded as “significant reactivation” and the Arnt gene expression entry is listed as “could not trigger significant upregulation”. The Aicda expression entry in the data set with A20 cells [5] (extended exposure to AzaC (24-72 hours)) is given as “significantly downregulated; also recorded: reduces Aicda expression; also recorded: downregulated expression”. Besides, in data set [6], the “Swelling and progression of established PGIA” value was “significantly reduce swelling and halt the progression of PGIA; also recorded: very effective; also recorded: no detectable signs of PGIA after the second AzaC injection; also recorded: halted the progression of PGIA; also recorded: clinical symptoms of RA were abolished”. The “Histology of ankle joints” value in data set [7] (AzaC-treated arthritic versus naive (non-immunized) ankles) was “no detectable histological differences”. In addition, in data set [7] (bone marrow, flow cytometry), the “Immature B cell number” value was “significant decrease” and the Plasma cell number result is given as “reduced, but statistically not significant alteration”. Besides, in data set [7] (sera of AzaC-treated PGIA mice), the “Autoantibody titer (human PG-specific IgG1, ELISA)” value is given as “diminish autoantibody production; also recorded: significantly reduced”. Besides, in data set [7] (spleen, flow cytometry), the “Splenic marginal zone (MZ) and follicular B cell populations” value was “no significant change”.
